The data set can be described thus: Plasma stability (37° C., pH 7.4), mouse. In kind it is in vitro ADME, CD-1 mouse. The following applies: for half-life at 1 μM: male, CD-1, mouse, plasma; for % Remaining of Initial / % Remaining of Initial (n = 1), 0 min / % Remaining of Initial (n = 1), 15 min / % Remaining of Initial (n = 1), 30 min / % Remaining of Initial (n = 1), 60 min / % Remaining of Initial (n = 1), 120 min: mouse plasma; for % Remaining of Initial: n = 1; for % Remaining of Initial (n = 1), 0 min: pH 7.4, 0 min; for % Remaining of Initial (n = 1), 15 min: pH 7.4, 15 min; for % Remaining of Initial (n = 1), 30 min: pH 7.4, 30 min; for % Remaining of Initial (n = 1), 60 min: pH 7.4, 60 min; for % Remaining of Initial (n = 1), 120 min: pH 7.4, 120 min; for % Remaining of Initial (n = 1): Mouse plasma. The procedure:
(§1) Studies were carried out in mixed-gender human plasma (Lot #GLP530-5), male Sprague-Dawley rat (Lot #RAT297944, RAT313140), male CD-1 mouse (Lot #MSE237700), and male Beagle dog (Lot #BGL87670, BGL82614), collected on sodium heparin. Plasma was adjusted to pH 7.4 prior to initiating the experiments. DMSO stocks were first prepared for the test articles. Aliquots of the DMSO solutions were dosed into 700 μL of plasma, which had been pre-warmed to 37° C., at a final test article concentration of 1 μM. […] Samples were stored at 4° C. until the end of the experiment. After the final time point was sampled, the plate was mixed and then centrifuged at 3,000 rpm for 10 minutes. Calibration standards were prepared in matched matrix. […] Analytical conditions are outlined in Appendix 8-1.
as §1, with “#AS1650-2),” for “#GLP530-5),”, “#RAT297944),” for “#RAT297944, RAT313140),”, “CD-I” for “CD-1”, “#BGL91384),” for “#BGL87670, BGL82614),”, “10-1.” for “8-1.”
Studies were carried out in mixed-gender human plasma (Lot #AS1650-2), male Sprague-Dawley rat (Lot #RAT297944), male CD-1 mouse (Lot #MSE237700), and male Beagle dog (Lot #BGL91384), collected on sodium heparin. Plasma was adjusted to pH 7.4 prior to initiating the experiments. DMSO stocks were first prepared for test articles. […] Samples were stored at 4° C. until the end of experiment. After the final time point was sampled, the plate was mixed and then centrifuged at 3,000 rpm for 10 minutes. Calibration standards were prepared in matched matrix. […] Analytical conditions are outlined in Appendix 13-1.
Studies were carried out in mixed-gender human plasma (Lot #AS 1650-2), male Sprague-Dawley rat (Lot #RAT320835), male CD-1 mouse (Lot #MSE260693), and 6 male Beagle dog (Lot #BGL91384), on sodium heparin. Plasma was adjusted to pH 7.4 prior to initiating the experiments. DMSO stocks were first prepared for the test articles. Aliquots of the DMSO solutions were dosed into 700 μL of plasma, which had been pre-warmed to 37° C., at a final test article concentration of 1 μM. […] Samples were stored at 4° C. until the end of the experiment. After the final time point was sampled, the plate was mixed and then centrifuged at 3,000 rpm for 10 minutes. Calibration standards were prepared in matched matrix. […] Analytical conditions are outlined in Appendix 17-1.

[1] abbreviates: pH 7.4, mouse plasma, read-out: Half-life.
Setting [2] is: pH 7.4, mouse plasma, test article 1 μM, 37° C., pH 7.4, read-out: Half-life.

Each structure is given as a SMILES string. Where two headings read alike, the source gives them in different places.

The half-life is the time needed for the level to fall by half in the phase considered.

On to `CCCCCCCCCCCCCCCC(=O)NCCOC(=O)CCC(=O)OC(CO)CO` [Compound I-8], for which the half-life at 1 μM under setting [1] was < 1 min. The “% Remaining of Initial” value is, setting by setting: (0 min, 1 μM) 100%; (15 min, 1 μM) <1.0%; (30 min, 1 μM) <1.0%; (60 min, 1 μM) <1.0%; (120 min, 1 μM) <1.0%.
In the case of `CCCCCCCCCCCCCCCC(=O)NCCOC(=O)CCC(=O)OC(COC(=O)CCC)COC(=O)CCC` [Compound I-16], the half-life at 1 μM runs as follows: under setting [1], < 15 min; (pH 7.4, mouse plasma, read-out: Half-life, calculated value in parentheses) 4.7 min. Besides, the “% Remaining of Initial” value (0 min, 1 μM) is recorded as 100%; the “% Remaining of Initial” value (15 min, 1 μM) is reported as 10%; the “% Remaining of Initial” value (30 min, 1 μM) came out at 4.0%; the “% Remaining of Initial” value (60 min, 1 μM) was 1.1%; the “% Remaining of Initial” value (120 min, 1 μM) is <1.0%.
For the compound `CCCCCCCCCCCCCCCC(=O)NCCOC(=O)CCC(=O)OC[C@H]1O[C@@](CO)(O[C@H]2O[C@H](CO)[C@@H](O)[C@H](O)[C@H]2O)[C@@H](O)[C@@H]1O` [Compound I-7], the half-life at 1 μM under setting [2] was < 1 min. Under “test article 1 μM, 37° C.”, the “% Remaining of Initial (n = 1), 0 min” value amounted to 100%; the “% Remaining of Initial (n = 1), 15 min” value is recorded as <1.0%; the “% Remaining of Initial (n = 1), 30 min” value is <1.0%; the “% Remaining of Initial (n = 1), 60 min” value was <1.0%. For the same compound, the “% Remaining of Initial (n = 1), 120 min” value (test article 1 μM, 37° C.) is given as <1.0%.
Turning to `CCCCCCCCCCCCCCCC(=O)NCCOC(=O)CCC` [Compound I-2], the half-life at 1 μM under setting [2] was 62 min. Besides, where the note is “test article 1 μM, 37° C.”, the “% Remaining of Initial (n = 1), 0 min” value amounted to 100%; the “% Remaining of Initial (n = 1), 15 min” value was found to be 72%; the “% Remaining of Initial (n = 1), 30 min” value turned out to be 71%; the “% Remaining of Initial (n = 1), 60 min” value turned out to be 56%. In addition, the “% Remaining of Initial (n = 1), 120 min” value (test article 1 μM, 37° C.) was found to be 21%.
For `CCCCC/C=C\C/C=C\CCCCCCCC(=O)OCCNC(=O)CCCCCCCCCCCCCCC` [Compound I-6], under setting [2], the half-life at 1 μM was determined as 56 min. For the setting “test article 1 μM, 37° C.”, the “% Remaining of Initial (n = 1), 0 min” value is listed as 100%; the “% Remaining of Initial (n = 1), 15 min” value is reported as 83%; the “% Remaining of Initial (n = 1), 30 min” value worked out at 89%; the “% Remaining of Initial (n = 1), 60 min” value amounted to 39%. For the same compound, for the setting “test article 1 μM, 37° C.”, the “% Remaining of Initial (n = 1), 120 min” value turned out to be 23%.
`CC/C=C\C/C=C\C/C=C\C/C=C\C/C=C\CCCC(=O)OCCNC(=O)CCCCCCCCCCCCCCC` [Compound I-5]: under setting [2], the half-life at 1 μM was > 120 min. Besides, the half-life at 1 μM (pH 7.4, mouse plasma, calculated value beyond duration of experiment, read-out: Half-life (min), calculated half-life in parentheses) is 213 min. Besides, where the note is “test article 1 μM, 37° C.”, the “% Remaining of Initial (n = 1), 0 min” value came out at 100%; the “% Remaining of Initial (n = 1), 15 min” value was found to be 109%; the “% Remaining of Initial (n = 1), 30 min” value was 86%; the “% Remaining of Initial (n = 1), 60 min” value was found to be 73%. Also, under “test article 1 μM, 37° C.”, the “% Remaining of Initial (n = 1), 120 min” value is 75%.
Take `CCCCCCCCCCCCCCCC(=O)NCCOC(=O)CCC(=O)OCC(COC(=O)CCCCCCC)OC(=O)CCCCCCC` (centres unmarked) [Compound I-3, PEA-Succinate-Glycerol-Di-Caprylic]: under setting [2], the half-life at 1 μM was 9.4 min. Further, where the note is “test article 1 μM, 37° C.”, the “% Remaining of Initial (n = 1), 0 min” value is on record as 100%; the “% Remaining of Initial (n = 1), 15 min” value is 23%; the “% Remaining of Initial (n = 1), 30 min” value was 24%; the “% Remaining of Initial (n = 1), 60 min” value is recorded as 9.1%. Where the note is “test article 1 μM, 37° C.”, the “% Remaining of Initial (n = 1), 120 min” value is listed as 4.7%.
With `CCCCCCCCCCCCCCCC(=O)NCCOC(=O)CCC(=O)OCC(O)CO` (centres unmarked) [Compound I-9], the half-life at 1 μM under setting [2] is 13 min. Where the note is “test article 1 μM, 37° C.”, the “% Remaining of Initial (n = 1), 0 min” value is 100%; the “% Remaining of Initial (n = 1), 15 min” value stood at 49%; the “% Remaining of Initial (n = 1), 30 min” value was 17%; the “% Remaining of Initial (n = 1), 60 min” value was found to be 2.3%. For the same compound, the “% Remaining of Initial (n = 1), 120 min” value (test article 1 μM, 37° C.) is <1.0%.
Take `CCCCCCCCCCCCCCCC(=O)NCCOC(=O)CCC(=O)OCC(COC(=O)CCC)OC(=O)CCC` (centres unmarked) [Compound I-11]: the half-life at 1 μM under setting [2] is 3 min. For the same compound, under “test article 1 μM, 37° C.”, the “% Remaining of Initial (n = 1), 0 min” value was 100%; the “% Remaining of Initial (n = 1), 15 min” value is recorded as 2.9%; the “% Remaining of Initial (n = 1), 30 min” value came out at 2.1%; the “% Remaining of Initial (n = 1), 60 min” value is reported as 1.9%. The “% Remaining of Initial (n = 1), 120 min” value (test article 1 μM, 37° C.) is reported as <1.0%.
Take `CCCCC/C=C\C/C=C\CCCCCCCC(=O)OCC(COC(=O)CCC(=O)OCCNC(=O)CCCCCCCCCCCCCCC)OC(=O)CCCCCCC/C=C\C/C=C\CCCCC` (centres unmarked) [Compound I-13]: the “% Remaining of Initial (n = 1)” value runs as follows: (0 min, 1 μM) 100%; (15 min, 1 μM) 82%; (30 min, 1 μM) 71%; (60 min, 1 μM) 49%; (120 min, 1 μM) 35%. The half-life at 1 μM (pH 7.4, Mouse plasma, 1 μM, read-out: Half-life) amounted to 70 min.

These data come from patent US11547681B2, “N-acylethanolamide derivatives and uses thereof” (ELIEM THERAPEUTICS, INC., priority 2016, dated 2023).
